Some results are limits rather than exact numbers.

The experiment deals with T1, PI3K beta (Homo sapiens, UniProt P42338).
T1 construct: for the full-length p110-b subunit are generated and fused by overlapping PCR; His tag (C); made in house; host or cells: baculovirus BV949; Tn5 (Trichoplusia ni) or TiniPro insect cells
T1 sequence (P42338 with tags, fused parts or gaps limits assumed): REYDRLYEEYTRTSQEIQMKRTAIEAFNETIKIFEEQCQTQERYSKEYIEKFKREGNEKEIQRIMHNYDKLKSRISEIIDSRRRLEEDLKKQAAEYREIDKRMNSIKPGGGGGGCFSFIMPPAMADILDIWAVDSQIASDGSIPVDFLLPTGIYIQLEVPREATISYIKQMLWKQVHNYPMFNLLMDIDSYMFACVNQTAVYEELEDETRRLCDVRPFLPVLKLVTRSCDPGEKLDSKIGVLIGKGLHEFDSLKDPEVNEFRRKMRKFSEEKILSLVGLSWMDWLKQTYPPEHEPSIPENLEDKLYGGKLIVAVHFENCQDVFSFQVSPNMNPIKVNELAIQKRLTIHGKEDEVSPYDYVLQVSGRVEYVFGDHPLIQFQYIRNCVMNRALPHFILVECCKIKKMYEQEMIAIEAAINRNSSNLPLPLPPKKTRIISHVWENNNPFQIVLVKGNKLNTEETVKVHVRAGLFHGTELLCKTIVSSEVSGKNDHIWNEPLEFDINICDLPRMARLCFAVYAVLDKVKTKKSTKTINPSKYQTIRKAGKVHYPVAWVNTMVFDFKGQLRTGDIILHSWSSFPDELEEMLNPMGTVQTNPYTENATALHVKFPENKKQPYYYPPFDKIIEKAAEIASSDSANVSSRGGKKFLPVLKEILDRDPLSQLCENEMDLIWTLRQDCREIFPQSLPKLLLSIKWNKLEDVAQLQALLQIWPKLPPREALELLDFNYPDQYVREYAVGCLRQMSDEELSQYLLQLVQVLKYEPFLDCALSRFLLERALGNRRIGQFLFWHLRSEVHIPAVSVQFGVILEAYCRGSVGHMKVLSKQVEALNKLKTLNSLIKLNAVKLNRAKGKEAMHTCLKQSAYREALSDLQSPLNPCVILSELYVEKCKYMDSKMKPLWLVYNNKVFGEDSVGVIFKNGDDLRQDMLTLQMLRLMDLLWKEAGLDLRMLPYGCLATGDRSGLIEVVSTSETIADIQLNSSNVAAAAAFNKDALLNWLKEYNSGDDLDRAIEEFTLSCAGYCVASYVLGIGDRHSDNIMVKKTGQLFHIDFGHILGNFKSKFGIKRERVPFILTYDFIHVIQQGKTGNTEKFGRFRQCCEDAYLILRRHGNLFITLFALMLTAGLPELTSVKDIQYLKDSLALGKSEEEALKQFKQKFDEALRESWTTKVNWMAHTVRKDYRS
The experiment is described as follows: PI3K beta kinase assay (Kinase-Glo luminescence). It counts as biochemical. As to conditions: read-out: EPK_PI3Kbeta/IC50. The procedure, abridged: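 PI3Kβ construct BV949 (p85 iSH2–p110β full-length, C-His), 25 nM, reacted with 1 μM ATP and 10 μg/mL phosphatidylinositol in Tris pH 7.5, MgCl2, NaCl, CHAPS, DTT buffer, 60 min at room temperature. Remaining ATP by Kinase-Glo luminescence; IC50 from 4-parameter logistic fit of 8 concentrations.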
Background: In Kinase-Glo more light means more ATP remaining.
On to `CCOc1ccc(-c2ccc3ncc4c(c3c2)n(-c2ccc(N(C)C)nc2C)c(=O)n4C)cn1` [Example 19.3, 1-(6-Dimethylamino-2-methyl-pyridin-3-yl)-8-(6-ethoxy-pyridin-3-yl)-3-methyl-1,3-dihydro-imidazo[4,5-c]quinolin-2-one], for which the IC50 stood at 1970 nM.

Consider `COc1cc(-c2ccc3ncc4c(c3c2)n(-c2ccc(N(C)C)nc2C)c(=O)n4C)cnc1CO` [Example 19.4, 1-(6-Dimethylamino-2-methyl-pyridin-3-yl)-8-(6-hydroxymethyl-5-methoxy-pyridin-3-yl)-3-methyl-1,3-dihydro-imidazo[4,5-c]quinolin-2-one], for which the IC50 is below 3 nM.

As for `Cc1nc(N(C)C)ccc1-n1c(=O)n(C)c2cnc3ccc(-c4cncc(N)c4)cc3c21` [Example 19.5, 8-(5-Amino-pyridin-3-yl)-1-(6-dimethylamino-2-methyl-pyridin-3-yl)-3-methyl-1,3-dihydro-imidazo[4,5-c]quinolin-2-one], the IC50 amounted to 300 nM.

For `COCC(=O)Nc1ccc(-n2c(=O)n(C)c3cnc4ccc(-c5cncc(N)c5)cc4c32)c(C)n1` [Example 20.1, N-{5-[8-(5-Amino-pyridin-3-yl)-3-methyl-2-oxo-2,3-dihydro-imidazo[4,5-c]quinolin-1-yl]-6-methyl-pyridin-2-yl}-2-methoxy-acetamide], the IC50 is 38 nM. In the case of `CCOc1ccc(-c2ccc3ncc4c(c3c2)n(-c2ccc(NC(=O)COC)nc2C)c(=O)n4C)cn1` [Example 20.2, N-{5-[8-(6-Ethoxy-pyridin-3-yl)-3-methyl-2-oxo-2,3-dihydro-imidazo[4,5-c]quinolin-1-yl]-6-methyl-pyridin-2-yl}-2-methoxy-acetamide], the IC50 is 891 nM. In the case of `CNc1ncc(-c2ccc3ncc4c(c3c2)n(-c2ccc(NC(=O)COC)nc2C)c(=O)n4C)cn1` [Example 20.3, 2-Methoxy-N-{6-methyl-5-[3-methyl-8-(2-methylamino-pyrimidin-5-yl)-2-oxo-2,3-dihydro-imidazo[4,5-c]quinolin-1-yl]-pyridin-2-yl}-acetamide], the IC50 turned out to be 2760 nM. Then `CNc1ccc(-c2ccc3ncc4c(c3c2)n(-c2ccc(NC(=O)COC)nc2C)c(=O)n4C)cn1` [Example 20.4, 2-Methoxy-N-{6-methyl-5-[3-methyl-8-(6-methylamino-pyridin-3-yl)-2-oxo-2,3-dihydro-imidazo[4,5-c]quinolin-1-yl]-pyridin-2-yl}-acetamide], with 592 nM; and `COCC(=O)Nc1ccc(-n2c(=O)n(C)c3cnc4ccc(-c5cncc(OC(C)C)c5)cc4c32)c(C)n1` [Example 20.5, N-{5-[8-(5-Isopropoxy-pyridin-3-yl)-3-methyl-2-oxo-2,3-dihydro-imidazo[4,5-c]quinolin-1-yl]-6-methyl-pyridin-2-yl}-2-methoxy-acetamide], with 542 nM; and `COCCOc1ccc(-n2c(=O)n(C)c3cnc4ccc(-c5cncc(N6CCC6)c5)cc4c32)c(C)n1` [Example 22.2, 8-(5-Azetidin-1-yl-pyridin-3-yl)-1-[6-(2-methoxy-ethoxy)-2-methyl-pyridin-3-yl]-3-methyl-1,3-dihydro-imidazo[4,5-c]quinolin-2-one], with 746 nM. As to `COCCOc1ccc(-n2c(=O)n(C)c3cnc4ccc(-c5cnc(COC)c(OC)c5)cc4c32)c(C)n1` [Example 22.3, 1-[6-(2-Methoxy-ethoxy)-2-methyl-pyridin-3-yl]-8-(5-methoxy-6-methoxymethyl-pyridin-3-yl)-3-methyl-1,3-dihydro-imidazo[4,5-c]quinolin-2-one], the IC50 was 122 nM. Next, `Cc1nc(N2CC(F)(F)C2)ccc1-n1c(=O)n(C)c2cnc3ccc(-c4cncc(C(C)(C)O)c4)cc3c21` [Example 24.2, 1-[6-(3,3-Difluoro-azetidin-1-yl)-2-methyl-pyridin-3-yl]-8-[5-(1-hydroxy-1-methyl-ethyl)-pyridin-3-yl]-3-methyl-1,3-dihydro-imidazo[4,5-c]quinolin-2-one]: 19 nM. As for `CCNc1cc(-c2ccc3ncc4c(c3c2)n(-c2ccc(N3CC(F)(F)C3)nc2C)c(=O)n4C)cnc1CO` [Example 24.3, 1-[6-(3,3-Difluoro-azetidin-1-yl)-2-methyl-pyridin-3-yl]-8-(5-ethylamino-6-hydroxymethyl-pyridin-3-yl)-3-methyl-1,3-dihydro-imidazo[4,5-c]quinolin-2-one], the IC50 stood at 27 nM. Turning to `CNc1ccc(-c2ccc3ncc4c(c3c2)n(-c2ccc(N3CCCC3)nc2C)c(=O)n4C)cn1` [Example 25.1, 3-Methyl-8-(6-methylamino-pyridin-3-yl)-1-(2-methyl-6-pyrrolidin-1-yl-pyridin-3-yl)-1,3-dihydro-imidazo[4,5-c]quinolin-2-one], the IC50 was 1520 nM. For `Cc1nc(N2CCC(O)C2)ccc1-n1c(=O)n(C)c2cnc3ccc(-c4cncc(OC(C)C)c4)cc3c21` (centres unmarked) [Example 27.1, 1-[6-(3-Hydroxy-pyrrolidin-1-yl)-2-methyl-pyridin-3-yl]-8-(5-isopropoxy-pyridin-3-yl)-3-methyl-1,3-dihydro-imidazo[4,5-c]quinolin-2-one], the IC50 was determined as 13 nM. Next, `Cc1nc(C(C)(C)O)ccc1-n1c(=O)n(C)c2cnc3ccc(-c4cncc(OC(C)C)c4)cc3c21` [Example 31.9, 1-[6-(1-Hydroxy-1-methyl-ethyl)-2-methyl-pyridin-3-yl]-8-(5-isopropoxy-pyridin-3-yl)-3-methyl-1,3-dihydro-imidazo[4,5-c]quinolin-2-one]: 62 nM; `CNc1cc(-c2ccc3ncc4c(c3c2)n(-c2ccc(C(F)(F)F)nc2C)c(=O)n4C)cnc1CO` [Example 33.2, 8-(6-Hydroxymethyl-5-methylamino-pyridin-3-yl)-3-methyl-1-(2-methyl-6-trifluoromethyl-pyridin-3-yl)-1,3-dihydro-imidazo[4,5-c]quinolin-2-one]: 38 nM; `Cc1nc(N2CC(F)(F)C(F)(F)C2)ccc1-n1c(=O)n(C)c2cnc3ccc(-c4cncc(C(C)(C)O)c4)cc3c21` [Example 35.1, 8-[5-(1-Hydroxy-1-methyl-ethyl)-pyridin-3-yl]-3-methyl-1-[2-methyl-6-(3,3,4,4-tetrafluoro-pyrrolidin-1-yl)-pyridin-3-yl]-1,3-dihydro-imidazo[4,5-c]quinolin-2-one]: 34 nM.

The record behind these values is patent US20100311714A1, “1H-IMIDAZO[4,5-c]QUINOLINONE COMPOUNDS” (priority 2009, published 2010).
